Measured values from patent US11207310B2 (PRILENIA NEUROTHERAPEUTICS LTD., priority 2016, dated 2021).
Read-outs that look alike come from different tables or passages of the source.

System: patients with HD
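Further: UHDRS Total Functional Capacity items for finances and ADL, each scored 0 to 3, where 3 means normal function and 0 means unable (finances) or total care (ADL).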

SMILES: CCCN1CCC(c2cccc(S(C)(=O)=O)c2)CC1 [pridopidine, 4-[3-(methylsulfonyl)phenyl]-1-propyl-piperidine]
- Δ to placebo: UHDRS TFC Finance and ADL score, change from baseline (67.5 mg bid, TMS 1st Q, week 26): 0.5
- Δ to placebo: UHDRS TFC Finance and ADL score, change from baseline (67.5 mg bid, TMS 1st Q, week 52): 0.61
- Change from baseline in UHDRS TFC Finance ADL, Δ to placebo (67.5 mg bid, Week 26, ALL): 0.16
- UHDRS TFC Finance ADL, change from baseline, Δ to placebo (67.5 mg bid, Week 26, BL TFC<7, p value 0.8408): −0.06
- UHDRS TFC Finance ADL, change from baseline, Δ to placebo (67.5 mg bid, Week 26, BL TFC≥7, p value 0.0817): 0.32
- Change from baseline in UHDRS TFC Finance ADL, Δ to placebo (67.5 mg bid, Week 26, Stage 1 BL TFC 11-13): 0.65
- Change from baseline in UHDRS TFC Finance ADL, Δ to placebo (67.5 mg bid, Week 26, Stage 2 BL TFC 7-10 (FIG. 11c)): 0.26
- Change from baseline in UHDRS TFC Finance ADL, Δ to placebo (67.5 mg bid, Week 26, Stage 2 BL TFC 7-10 (FIG. 11f)): 0.54
- Change from baseline in UHDRS TFC Finance ADL, Δ to placebo (67.5 mg bid, Week 52, ALL): 0.1
- UHDRS TFC Finance ADL, change from baseline, Δ to placebo (67.5 mg bid, Week 52, BL TFC<7, p value 0.497): −0.25
- UHDRS TFC Finance ADL, change from baseline, Δ to placebo (67.5 mg bid, Week 52, BL TFC≥7, p value 0.1926): 0.27
- Change from baseline in UHDRS TFC Finance ADL, Δ to placebo (67.5 mg bid, Week 52, Stage 1 BL TFC 11-13): −0.18
- Δ to placebo: UHDRS TFC Finance and ADL score, change from baseline (90 mg bid, BL CAG Repeat >44, week 26): 0.67
- Δ to placebo: UHDRS TFC Finance and ADL score, change from baseline (90 mg bid, BL TFC≥9, week 26): 0.51
- Δ to placebo: UHDRS TFC Finance and ADL score, change from baseline (90 mg bid, BL TFC≥9 and BL TMS 1st 3 Qs, week 26): 0.45
- Δ to placebo: UHDRS TFC Finance and ADL score, change from baseline (90 mg bid, BL TFC≥9 and CAG Repeat >44, week 26): 0.83
- Δ to placebo: UHDRS TFC Finance and ADL score, change from baseline (90 mg bid, BL TFC≥9 and CAG Repeats <44 and BL TMS 1st 3 Qs, week 26): 0.81
- Δ to placebo: UHDRS TFC Finance and ADL score, change from baseline (90 mg bid, BL TFC≥9 or CAG Repeat >44, week 26): 0.52
- Δ to placebo: UHDRS TFC Finance and ADL score, change from baseline (90 mg bid, CAG Repeats <44 and BL TMS 1st 3 Qs, week 26): 0.6
- Δ to placebo: UHDRS TFC Finance and ADL score, change from baseline (90 mg bid, TMS 1st 2Qs, week 26): 0.26
- Δ to placebo: UHDRS TFC Finance and ADL score, change from baseline (90 mg bid, TMS 1st 2Qs, week 52): 0.47
- Δ to placebo: UHDRS TFC Finance and ADL score, change from baseline (90 mg bid, TMS 1st 3Qs, week 26): 0.35
- Δ to placebo: UHDRS TFC Finance and ADL score, change from baseline (90 mg bid, TMS 1st 3Qs, week 52): 0.21
- Δ to placebo: UHDRS TFC Finance and ADL score, change from baseline (90 mg bid, TMS 1st Q, week 26): 0.63
- Δ to placebo: UHDRS TFC Finance and ADL score, change from baseline (90 mg bid, TMS 1st Q, week 52): 0.57
- Change from baseline in UHDRS TFC Finance ADL, Δ to placebo (90 mg bid, Week 26, ALL): 0.31
- UHDRS TFC Finance ADL, change from baseline, Δ to placebo (90 mg bid, Week 26, BL TFC<7, p value 0.3747): 0.28
- UHDRS TFC Finance ADL, change from baseline, Δ to placebo (90 mg bid, Week 26, BL TFC≥7, p value 0.0093): 0.47
- Change from baseline in UHDRS TFC Finance ADL, Δ to placebo (90 mg bid, Week 26, Stage 1 BL TFC 11-13): 0.97
- Change from baseline in UHDRS TFC Finance ADL, Δ to placebo (90 mg bid, Week 26, Stage 2 BL TFC 7-10 (FIG. 11c)): 0.3
- Change from baseline in UHDRS TFC Finance ADL, Δ to placebo (90 mg bid, Week 26, Stage 2 BL TFC 7-10 (FIG. 11f)): 0.56
- Change from baseline in UHDRS TFC Finance ADL, Δ to placebo (90 mg bid, Week 52, ALL): 0.17
- UHDRS TFC Finance ADL, change from baseline, Δ to placebo (90 mg bid, Week 52, BL TFC<7, p value 0.4368): −0.29
- UHDRS TFC Finance ADL, change from baseline, Δ to placebo (90 mg bid, Week 52, BL TFC≥7, p value 0.0088): 0.53
- Change from baseline in UHDRS TFC Finance ADL, Δ to placebo (90 mg bid, Week 52, Stage 1 BL TFC 11-13): 0.4
- Δ to placebo: UHDRS TFC Finance and ADL score, change from baseline (112.5 mg bid, BL CAG Repeat >44, week 26): 0.47
- Δ to placebo: UHDRS TFC Finance and ADL score, change from baseline (112.5 mg bid, BL TFC≥9, week 26): 0.57
- Δ to placebo: UHDRS TFC Finance and ADL score, change from baseline (112.5 mg bid, BL TFC≥9 and BL TMS 1st 3 Qs, week 26): 0.54
- Δ to placebo: UHDRS TFC Finance and ADL score, change from baseline (112.5 mg bid, BL TFC≥9 and CAG Repeat >44, week 26): 1.02
- Δ to placebo: UHDRS TFC Finance and ADL score, change from baseline (112.5 mg bid, BL TFC≥9 and CAG Repeats <44 and BL TMS 1st 3 Qs, week 26): 1.08
- Δ to placebo: UHDRS TFC Finance and ADL score, change from baseline (112.5 mg bid, BL TFC≥9 or CAG Repeat >44, week 26): 0.4
- Δ to placebo: UHDRS TFC Finance and ADL score, change from baseline (112.5 mg bid, CAG Repeats <44 and BL TMS 1st 3 Qs, week 26): 0.57
- Δ to placebo: UHDRS TFC Finance and ADL score, change from baseline (112.5 mg bid, TMS 1st 2Qs, week 26): 0.19
- Δ to placebo: UHDRS TFC Finance and ADL score, change from baseline (112.5 mg bid, TMS 1st 2Qs, week 52): 0.44
- Δ to placebo: UHDRS TFC Finance and ADL score, change from baseline (112.5 mg bid, TMS 1st 3Qs, week 26): 0.41
- Δ to placebo: UHDRS TFC Finance and ADL score, change from baseline (112.5 mg bid, TMS 1st 3Qs, week 52): 0.09
- Δ to placebo: UHDRS TFC Finance and ADL score, change from baseline (112.5 mg bid, TMS 1st Q, week 26): 1.1
- Δ to placebo: UHDRS TFC Finance and ADL score, change from baseline (112.5 mg bid, TMS 1st Q, week 52): 0.74
- Change from baseline in UHDRS TFC Finance ADL, Δ to placebo (112.5 mg bid, Week 26, ALL): 0.38
- UHDRS TFC Finance ADL, change from baseline, Δ to placebo (112.5 mg bid, Week 26, BL TFC<7, p value 0.9361): 0.03
- UHDRS TFC Finance ADL, change from baseline, Δ to placebo (112.5 mg bid, Week 26, BL TFC≥7, p value 0.0007): 0.62
- Change from baseline in UHDRS TFC Finance ADL, Δ to placebo (112.5 mg bid, Week 26, Stage 1 BL TFC 11-13): 1.12
- Change from baseline in UHDRS TFC Finance ADL, Δ to placebo (112.5 mg bid, Week 26, Stage 2 BL TFC 7-10 (FIG. 11c)): 0.46
- Change from baseline in UHDRS TFC Finance ADL, Δ to placebo (112.5 mg bid, Week 26, Stage 2 BL TFC 7-10 (FIG. 11f)): 0.18
- Change from baseline in UHDRS TFC Finance ADL, Δ to placebo (112.5 mg bid, Week 52, ALL): 0.1
- UHDRS TFC Finance ADL, change from baseline, Δ to placebo (112.5 mg bid, Week 52, BL TFC<7, p value 0.5626): −0.22
- UHDRS TFC Finance ADL, change from baseline, Δ to placebo (112.5 mg bid, Week 52, BL TFC≥7, p value 0.0841): 0.36
- Change from baseline in UHDRS TFC Finance ADL, Δ to placebo (112.5 mg bid, Week 52, Stage 1 BL TFC 11-13): 0.64
